From ChEMBL document CHEMBL4017471, “Discovery of novel aminobenzisoxazole derivatives as orally available factor IXa inhibitors” (Bioorg Med Chem Lett, 2017)

Molecular target: Coagulation factor IX (Homo sapiens, UniProt P00740)
Sequence (P00740 47-191 limits assumed): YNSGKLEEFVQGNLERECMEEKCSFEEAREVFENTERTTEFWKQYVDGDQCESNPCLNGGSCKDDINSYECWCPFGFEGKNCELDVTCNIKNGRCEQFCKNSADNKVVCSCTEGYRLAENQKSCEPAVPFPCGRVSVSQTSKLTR
Sequence (P00740 227-461 limits assumed): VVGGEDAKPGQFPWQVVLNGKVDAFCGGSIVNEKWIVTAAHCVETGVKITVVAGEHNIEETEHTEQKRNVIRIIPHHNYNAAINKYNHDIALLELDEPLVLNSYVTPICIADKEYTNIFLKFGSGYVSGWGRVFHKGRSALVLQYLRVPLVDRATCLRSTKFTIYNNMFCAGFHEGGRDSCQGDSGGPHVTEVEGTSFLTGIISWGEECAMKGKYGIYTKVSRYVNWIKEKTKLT

SMILES | IC50
Nc1noc2c(N3CC[C@@H](NC(=O)c4ccc(-n5cnnc5)cc4Cl)C3)ccc(Cl)c12 | 32 nM
Cc1ccc(N2CCC(C)(NC(=O)c3ccc(-n4cnnc4)cc3Cl)C2)c([N+](=O)[O-])c1 (stereo not given) | 2200 nM
Nc1noc2c(N3CCC(NC(=O)c4ccc(-n5cnnc5)cc4Cl)C3)cc(Cl)cc12 (racemic) | 18 nM
Nc1noc2c(N3CC[C@@H](NC(=O)c4ccc(-n5cnnc5)cc4Cl)C3)cc(Cl)c(Cl)c12 | 47 nM
Nc1noc2c(N3CCC(NC(=O)c4ccc(-n5cnnc5)cc4Cl)C3)cccc12 (racemic) | 98 nM
Cc1cc2c(N)noc2c(N2CC[C@@H](NC(=O)c3ccc(-n4cnnc4)cc3Cl)C2)n1 | 41 nM

Results, then the molecule that gave them:

IC50 | SMILES
36 nM | Cn1cc(-c2ccc(C(=O)N[C@@H]3CCN(c4ncc(Cl)c5c(N)noc45)C3)c(Cl)c2)cnc1=O
13 nM | Nc1noc2c(N3CC[C@@H](NC(=O)c4ccc(-n5cnc6ncccc65)cc4Cl)C3)ncc(Cl)c12
172 nM | Nc1noc2c(N3CC[C@@H](NC(=O)c4ccc(-n5cnnc5)cc4Cl)C3)ccc(F)c12
> 3000 nM | Nc1noc2c(N3CC[C@@H](NC(=O)c4ccc(-c5ncccn5)cc4Cl)C3)ncc(Cl)c12
89 nM | Nc1noc2c(N3CCC(NC(=O)c4ccc(-n5cnnc5)cc4Cl)C3)nccc12 (racemic)
50 nM | Cc1cc(N2CCC(NC(=O)c3ccc(-n4cnnc4)cc3Cl)C2)c2onc(N)c2c1 (racemic)

Test system: not listed separately
Assay: Unbound plasma concentration in human at 10 uM measured after 4 hrs by equilibrium dialysis method
Format: ADME, cell-free

SMILES | fraction unbound at 4 h, 10 µM
Cn1cc(-c2ccc(C(=O)N[C@@H]3CCN(c4ncc(Cl)c5c(N)noc45)C3)c(Cl)c2)cnc1=O | 0.017
Nc1noc2c(N3CC[C@@H](NC(=O)c4ccc(-n5cnc6ncccc65)cc4Cl)C3)ncc(Cl)c12 | 0.008

Molecular target: Coagulation factor X (Homo sapiens, UniProt P00742)
Sequence (P00742 41-179 limits assumed): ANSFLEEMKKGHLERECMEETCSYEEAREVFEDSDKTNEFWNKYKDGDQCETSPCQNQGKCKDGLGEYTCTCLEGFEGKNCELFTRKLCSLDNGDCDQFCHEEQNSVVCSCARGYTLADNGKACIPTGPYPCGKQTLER
Sequence (P00742 235-488 limits assumed): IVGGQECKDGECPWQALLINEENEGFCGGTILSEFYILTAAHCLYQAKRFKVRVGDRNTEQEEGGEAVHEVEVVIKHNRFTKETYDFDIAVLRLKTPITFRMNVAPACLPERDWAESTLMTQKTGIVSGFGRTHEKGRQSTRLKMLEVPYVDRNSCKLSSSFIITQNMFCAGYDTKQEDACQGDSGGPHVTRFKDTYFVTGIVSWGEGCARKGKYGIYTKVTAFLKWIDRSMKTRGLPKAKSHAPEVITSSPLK
Description: Inhibition of human coagulation factor 10a

SMILES | IC50
Nc1noc2c(N3CC[C@@H](NC(=O)c4ccc(-n5cnnc5)cc4Cl)C3)ccc(Cl)c12 | > 30000 nM
Cc1ccc(N2CCC(C)(NC(=O)c3ccc(-n4cnnc4)cc3Cl)C2)c([N+](=O)[O-])c1 (stereo not given) | > 100000 nM
Nc1noc2c(N3CCC(NC(=O)c4ccc(-n5cnnc5)cc4Cl)C3)cc(Cl)cc12 (racemic) | > 100000 nM
Nc1noc2c(N3CC[C@@H](NC(=O)c4ccc(-n5cnnc5)cc4Cl)C3)cc(Cl)c(Cl)c12 | 29000 nM
Nc1noc2c(N3CCC(NC(=O)c4ccc(-n5cnnc5)cc4Cl)C3)cccc12 (racemic) | > 100000 nM
Cc1cc2c(N)noc2c(N2CC[C@@H](NC(=O)c3ccc(-n4cnnc4)cc3Cl)C2)n1 | > 100000 nM

Now from value to molecule:

IC50 | SMILES
26000 nM | Cn1cc(-c2ccc(C(=O)N[C@@H]3CCN(c4ncc(Cl)c5c(N)noc45)C3)c(Cl)c2)cnc1=O
25000 nM | Nc1noc2c(N3CC[C@@H](NC(=O)c4ccc(-n5cnc6ncccc65)cc4Cl)C3)ncc(Cl)c12
> 100000 nM | Nc1noc2c(N3CC[C@@H](NC(=O)c4ccc(-n5cnnc5)cc4Cl)C3)ccc(F)c12
> 100000 nM | Nc1noc2c(N3CC[C@@H](NC(=O)c4ccc(-c5ncccn5)cc4Cl)C3)ncc(Cl)c12
> 100000 nM | Nc1noc2c(N3CCC(NC(=O)c4ccc(-n5cnnc5)cc4Cl)C3)nccc12 (racemic)
> 100000 nM | Cc1cc(N2CCC(NC(=O)c3ccc(-n4cnnc4)cc3Cl)C2)c2onc(N)c2c1 (racemic)

Test system: Plasma
Assay: Anticoagulant activity in human plasma assessed as concentration required to double activated partial thromboplastin time
Format: functional

SMILES | 2aPTT
Cn1cc(-c2ccc(C(=O)N[C@@H]3CCN(c4ncc(Cl)c5c(N)noc45)C3)c(Cl)c2)cnc1=O | 47 µM
Nc1noc2c(N3CC[C@@H](NC(=O)c4ccc(-n5cnc6ncccc65)cc4Cl)C3)ncc(Cl)c12 | 28 µM

Test system: not listed separately
Assay: Apparent permeability of the compound at 5 uM after 5 hrs by PAMPA
Format: physicochemical

SMILES | Papp at 5 h, 5 µM
Cn1cc(-c2ccc(C(=O)N[C@@H]3CCN(c4ncc(Cl)c5c(N)noc45)C3)c(Cl)c2)cnc1=O | 0.7 ×10⁻⁶ cm/s
Nc1noc2c(N3CC[C@@H](NC(=O)c4ccc(-n5cnc6ncccc65)cc4Cl)C3)ncc(Cl)c12 | 3.1 ×10⁻⁶ cm/s
